Test results from ChEMBL document CHEMBL5370609, “Amidine-Based Cationic Conjugated Oligoelectrolytes with Antimicrobial Activity against Pseudomonas aeruginosa Biofilms” (J Med Chem, 2023).
Values after ≈ are worked out from the molar mass of the structure shown. Active and inactive are the calls of the source. The rule behind the calls is not given here.

What was measured:
[1] = tested on: Escherichia coli; assay: Antibacterial activity against Escherichia coli ATCC 25922 assessed as inhibition of bacterial growth incubated for overnight by broth microdilution method; type: functional
[2] = tested on: Klebsiella pneumoniae; assay: Antibacterial activity against Klebsiella pneumoniae ATCC 700603 assessed as inhibition of bacterial growth incubated overnight by broth microdilution method; type: functional
[3] = tested on: Pseudomonas aeruginosa; assay: Antibacterial activity against Pseudomonas aeruginosa ATCC 27853 assessed as inhibition of bacterial growth incubated overnight by broth microdilution method; type: functional
[4] = tested on: Staphylococcus aureus; assay: Antibacterial activity against Staphylococcus aureus ATCC 29213 assessed as inhibition of bacterial growth incubated overnight by broth microdilution method; type: functional
[5] = Cytotoxicity against human HepG2 cells assessed as reduction in cell viability incubated for 24 hrs by MTT assay; type: toxicity, cell-based
[6] = Selectivity index, IC50 for cytotoxicity against human HepG2 cells to MIC for antibacterial activity against Pseudomonas aeruginosa ATCC 27853 assessed as inhibition of bacterial growth; type: toxicity, cell-based; settings: read-out: Selectivity Index
[7] = tested on: Pseudomonas aeruginosa; assay: Antibacterial activity against Pseudomonas aeruginosa PAO1 assessed as inhibition of bacterial growth incubated overnight by broth microdilution method; type: functional
[8] = tested on: Pseudomonas aeruginosa; assay: Bactericidal activity against Pseudomonas aeruginosa PAO1 assessed as reduction in viable bacteria at 4 times of MIC measured after 4 to 8 hrs by time-kill kinetics assay; type: functional, organism-based; settings: time 4-8 hrs
[9] = tested on: Pseudomonas aeruginosa; assay: Induction of resistance development in Pseudomonas aeruginosa PAO1 assessed as fold increase in MIC measured after consecutive passages for 21 days by serial passaging assay relative to day 1 MIC; type: functional; settings: time 21 day
[10] = tested on: Pseudomonas aeruginosa; assay: Induction of spontaneous resistance development in Pseudomonas aeruginosa PAO1 assessed as frequency of resistance at 2 to 4 times of MIC incubated for 48 hrs by FoR assay; type: functional
[11] = tested on: Pseudomonas aeruginosa; assay: Inhibition of biofilm formation in Pseudomonas aeruginosa PAO1 at below MIC incubated for 24 hrs by crystal violet staining based analysis; type: functional, organism-based
[12] = tested on: Pseudomonas aeruginosa; assay: Inhibition of biofilm formation in Pseudomonas aeruginosa PAO1 incubated for 24 hrs by crystal violet staining based analysis; type: functional
[13] = tested on: Pseudomonas aeruginosa; assay: Antibiofilm activity against preformed biofilm in Pseudomonas aeruginosa PAO1 assessed as bacteria killing at 1024 ug/ml incubated for 24 hrs by BacTiter Glo reagent based luminescence analysis; type: functional, organism-based; settings: dose 1024.0 µg/ml
[14] = tested on: Pseudomonas aeruginosa; assay: Antibiofilm activity against preformed biofilm in Pseudomonas aeruginosa PAO1 assessed as reduction in biofilm viability upto 1024 ug/ml incubated for 24 hrs by BacTiter Glo reagent based luminescence analysis; type: functional, organism-based; settings: dose <= 1024.0 µg/ml
[15] = tested on: Pseudomonas aeruginosa; assay: Antibiofilm activity in Pseudomonas aeruginosa PAO1 assessed as eradication of preformed biofilm at 64 to 128 ug/ml incubated for 24 hr by BacTiter Glo reagent based luminescence analysis; type: functional, organism-based; settings: dose 64-128 µg/ml
[16] = tested on: HEK293; assay: Cytotoxicity against HEK293 cells assessed as reduction in cell viability incubated for 24 hrs by CellTiter-Glo reagent based luminescence assay; type: toxicity; settings: human, hek293, 24 h
[17] = tested on: NIH3T3; assay: Cytotoxicity against mouse 3T3 cells assessed as reduction in cell viability incubated for 24 hrs by CellTiter-Glo reagent based luminescence assay; type: toxicity; settings: nih3t3, 24 h
[18] = Hemolytic activity in human blood assessed as hemolysis at 492 ug/ml incubated for 45 mins by absorbance based plate reader analysis relative to control; type: toxicity, tissue-based; settings: at 492 µg/mL, read-out: Activity
[19] = Dissociation constant, pKa of compound at pH 7.4 by potentiometric titration method; type: physicochemical
[20] = tested on: Pseudomonas aeruginosa; assay: Bactericidal activity against Pseudomonas aeruginosa PAO1 assessed as reduction in colony forming units at 4 times of MIC incubated for 1 hrs by time-kill kinetics assay relative to control; type: functional; set-up: scale not given: the % may be the effect or the level left
[21] = tested on: Pseudomonas aeruginosa; assay: Bactericidal activity against Pseudomonas aeruginosa PAO1 assessed as log reduction in colony forming units at 4 times of MIC incubated for 1 hrs by time-kill kinetics assay; type: functional
[22] = tested on: Pseudomonas aeruginosa; assay: Bactericidal activity against Pseudomonas aeruginosa PAO1 assessed as reduction in viable bacteria at 4 times of MIC measured at 8 to 48 hrs by time-kill kinetics assay; type: functional, organism-based; settings: time 8-48 hrs
[23] = tested on: Pseudomonas aeruginosa; assay: Bactericidal activity against Pseudomonas aeruginosa PAO1 assessed as bacterial eradication at 8 times of MIC measured at 8 hrs by time-kill kinetics assay relative to control; type: functional
[24] = tested on: Pseudomonas aeruginosa; assay: Bactericidal activity against Pseudomonas aeruginosa PAO1 assessed as reduction in bacterial growth at 8 times of MIC measured after 48 hrs by time-kill kinetics assay; type: functional, organism-based
[25] = tested on: Pseudomonas aeruginosa; assay: Inhibition of biofilm formation in Pseudomonas aeruginosa PAO1 at below MIC incubated for 24 hrs by crystal violet staining based analysis relative to control; type: functional
[26] = tested on: Pseudomonas aeruginosa; assay: Antibiofilm activity against preformed biofilm in Pseudomonas aeruginosa PAO1 assessed as biofilm killing at 128 ug/ml incubated for 24 hrs by BacTiter Glo reagent based luminescence analysis; type: functional, organism-based; settings: dose 128.0 µg/ml
[27] = tested on: Pseudomonas aeruginosa; assay: Antibiofilm activity in Pseudomonas aeruginosa PAO1 assessed as eradication of preformed biofilm at 256 ug/ml incubated for 24 hr by BacTiter Glo reagent based luminescence analysis; type: functional, organism-based; settings: dose 256.0 µg/ml
[28] = tested on: Pseudomonas aeruginosa; assay: Antibacterial activity against Pseudomonas aeruginosa PAO1 infected in C57BL/6 mouse wound model assessed as reduction in bacterial count on wound bed pre-infected with bacteria for 4 hrs followed by topical administration of compounds for 20 hrs and measured 24 hrs post infection; type: functional, organism-based; settings: dose 0.1-2 %
[29] = tested on: Pseudomonas aeruginosa; assay: Antibacterial activity against Pseudomonas aeruginosa PAO1 infected in C57BL/6 mouse wound model assessed as log reduction in colony forming unit on wound bed at 0.5 % w/v pre-infected with bacteria for 4 hrs followed by topical administration of compounds for 20 hrs and measured 24 hrs post infection; type: functional
[30] = tested on: Pseudomonas aeruginosa; assay: Antibacterial activity against Pseudomonas aeruginosa PAO1 infected in C57BL/6 mouse wound model assessed as log reduction in colony forming unit on wound bed at 2 % w/v pre-infected with bacteria for 4 hrs followed by topical administration of compounds for 20 hrs and measured 24 hrs post infection; type: functional
[31] = tested on: Pseudomonas aeruginosa; assay: Antibacterial activity against Pseudomonas aeruginosa PAO1 infected in C57BL/6 mouse wound model assessed as reduction in bacterial count on wound bed at 2 to 8 % w/v pre-infected with bacteria for 24 hrs followed by topical administration of compounds for 24 hrs; type: functional, organism-based; settings: dose 2-8 %

COLISTIN
MIC [1]: 2 µg/mL | MIC [2]: 2 µg/mL | MIC [3]: 2 µg/mL

C(=C\c1cc(OCCCNC2=NCCC2)cc(OCCCNC2=NCCC2)c1)/c1ccc(/C=C/c2cc(OCCCNC3=NCCC3)cc(OCCCNC3=NCCC3)c2)cc1.CC(=O)O.CC(=O)O.CC(=O)O.CC(=O)O
MIC [1]: 2 µg/mL | MIC [4]: 1 µg/mL | MIC [2]: 16 µg/mL | MIC [3]: 16 µg/mL | IC50 at 24 h [5]: 1020 µg/mL | selectivity ratio [6]: 64

C/N=C(/C)NCCCOc1cc(/C=C/c2ccc(/C=C/c3cc(OCCCN/C(C)=N\C)cc(OCCCN/C(C)=N/C)c3)cc2)cc(OCCCN/C(C)=N/C)c1.CC(=O)O.CC(=O)O.CC(=O)O.CC(=O)O
MIC [1]: 2 µg/mL | MIC [4]: 1 µg/mL | MIC [2]: 16 µg/mL | MIC [3]: 32 µg/mL | IC50 at 24 h [5]: > 1020 µg/mL | selectivity ratio [6]: > 32

CC(=O)O.CC(=O)O.CC(=O)O.CC(=O)O.CN(CCCOc1cc(/C=C/c2ccc(/C=C/c3cc(OCCCN(C)C(=N)C4CC4)cc(OCCCN(C)C(=N)C4CC4)c3)cc2)cc(OCCCN(C)C(=N)C2CC2)c1)C(=N)C1CC1
MIC [1]: 1 µg/mL | MIC [4]: 1 µg/mL | MIC [2]: 8 µg/mL | MIC [3]: 8 µg/mL | IC50 at 24 h [5]: 1020 µg/mL | selectivity ratio [6]: 128

CC(=O)O.CC(=O)O.CC(=O)O.CC(=O)O.CCC(=N)N(C)CCCOc1cc(/C=C/c2ccc(/C=C/c3cc(OCCCN(C)C(=N)CC)cc(OCCCN(C)C(=N)CC)c3)cc2)cc(OCCCN(C)C(=N)CC)c1
MIC [1]: 1 µg/mL | MIC [4]: 1 µg/mL | MIC [2]: 16 µg/mL | MIC [3]: 8 µg/mL | IC50 at 24 h [5]: > 1020 µg/mL | selectivity ratio [6]: > 128

NC[C@H]1O[C@H](O[C@H]2[C@H](O)[C@@H](O[C@H]3O[C@H](CO)[C@@H](O)[C@H](N)[C@H]3O)[C@H](N)C[C@@H]2N)[C@H](N)C[C@@H]1O [TOBRAMYCIN]
MIC [7]: 0.5 µg/mL (≈ 1.07 µM) | Activity [8]: inactive | fold change (FC) [9]: 64 | Activity [10]: Active | inhibition [11]: inactive | MBIC50 [12]: 0.5 µg/mL | MBIC90 [12]: 0.5 µg/mL | Activity [13]: Active

CC(=O)O.CC(=O)O.CC(=O)O.CC(=O)O.CCC(=N)N(CCCOc1cc(/C=C/c2ccc(/C=C/c3cc(OCCCN(C(=N)CC)C4CC4)cc(OCCCN(C(=N)CC)C4CC4)c3)cc2)cc(OCCCN(C(=N)CC)C2CC2)c1)C1CC1
MIC [1]: 2 µg/mL | MIC [4]: 1 µg/mL | MIC [2]: 8 µg/mL | MIC [3]: 16 µg/mL | IC50 at 24 h [5]: 128 µg/mL | selectivity ratio [6]: 8

CC(=O)O.CC(=O)O.CC(=O)O.CC(=O)O.N=C(CC1CC1)NCCCOc1cc(/C=C/c2ccc(/C=C/c3cc(OCCCNC(=N)CC4CC4)cc(OCCCNC(=N)CC4CC4)c3)cc2)cc(OCCCNC(=N)CC2CC2)c1
MIC [1]: 2 µg/mL | MIC [4]: 1 µg/mL | MIC [2]: 4 µg/mL | MIC [3]: 8 µg/mL | IC50 at 24 h [5]: 256 µg/mL | selectivity ratio [6]: 32

O=C(O)c1cn(C2CC2)c2cc(N3CCNCC3)c(F)cc2c1=O [CIPROFLOXACIN]
inhibition [11]: inactive | MBIC50 [12]: 2 µg/mL | MBIC90 [12]: 2 µg/mL | Activity [14]: inactive

POLYMYXIN B
MIC [7]: 2 µg/mL | inhibition [11]: inactive | MBIC50 [12]: 2 µg/mL | MBIC90 [12]: 2 µg/mL | Activity [15]: 100%

CC(=O)O.CC(=O)O.CC(=O)O.CC(=O)O.CCC(=N)NCCCOc1cc(/C=C/c2ccc(/C=C/c3cc(OCCCNC(=N)CC)cc(OCCCNC(=N)CC)c3)cc2)cc(OCCCNC(=N)CC)c1
MIC [1]: 1 µg/mL | MIC [4]: 1 µg/mL | MIC [2]: 8 µg/mL | MIC [3]: 8 µg/mL | IC50 at 24 h [5]: 1020 µg/mL | selectivity ratio [6]: 128

CC[C@H]1OC(=O)[C@H](C)[C@@H](O[C@H]2C[C@@](C)(OC)[C@@H](O)[C@H](C)O2)[C@H](C)[C@@H](O[C@@H]2O[C@H](C)C[C@H](N(C)C)[C@H]2O)[C@](C)(O)C[C@@H](C)C(=O)[C@H](C)[C@@H](O)[C@]1(C)O [ERYTHROMYCIN]
MIC [4]: 0.25 µg/mL (≈ 0.341 µM)

CC(=O)O.CC(=O)O.CC(=O)O.CC(=O)O.CCCN(CCCOc1cc(/C=C/c2ccc(/C=C/c3cc(OCCCN(CCC)C(=N)C4CC4)cc(OCCCN(CCC)C(=N)C4CC4)c3)cc2)cc(OCCCN(CCC)C(=N)C2CC2)c1)C(=N)C1CC1
MIC [4]: 1 µg/mL | IC50 at 24 h [5]: 16 µg/mL | selectivity ratio [6]: 0.5

CC(=O)O.CC(=O)O.CC(=O)O.CC(=O)O.N=C(NCCCOc1cc(/C=C/c2ccc(/C=C/c3cc(OCCCNC(=N)C4CC4)cc(OCCCNC(=N)C4CC4)c3)cc2)cc(OCCCNC(=N)C2CC2)c1)C1CC1
MIC [4]: 0.5 µg/mL | IC50 at 24 h [5]: 1020 µg/mL | selectivity ratio [6]: 512 | Activity [16]: Non-Toxic | Activity [17]: Non-Toxic | hemolysis at 0.75 h, 492 ug/ml [18]: 0.2% | pKa [19]: 10 | MIC [7]: 8 µg/mL | Activity [20]: 99.9% | log(activity) [21]: 3 | Activity [22]: inactive | Activity [23]: 100% | Activity [24]: Active | fold change (FC) [9]: 4 | Activity [10]: <1.3 10^-8No_unit | inhibition (INH) [25]: ~31% | MBIC50 [12]: 1 µg/mL | MBIC90 [12]: 4 µg/mL | Activity [26]: Active | Activity [27]: Active | Activity [28]: Dose-Dependent Effect | log(activity) [29]: 1.5 | log(activity) [30]: 2.8 | Activity [31]: Active

CC(=O)O.CC(=O)O.CC(=O)O.CC(=O)O.CCCN(CCCOc1cc(/C=C/c2ccc(/C=C/c3cc(OCCCN(CCC)C(=N)CC)cc(OCCCN(CCC)C(=N)CC)c3)cc2)cc(OCCCN(CCC)C(=N)CC)c1)C(=N)CC
MIC [1]: 2 µg/mL | MIC [4]: 1 µg/mL | MIC [2]: 8 µg/mL | MIC [3]: 16 µg/mL | IC50 at 24 h [5]: 32 µg/mL | selectivity ratio [6]: 2
